Drawing on patent US10239843B2 (CANCER RESEARCH TECHNOLOGY LIMITED, priority 2014, dated 2019), this text covers IC50 for 57 molecules.

For one assay, the target named is Human Full Length PARG (Homo sapiens (Human), UniProt Q86W56). The assay is described as follows: PARG enzyme assay (TR-FRET). It is filed as biochemical. The note with it: read-out: PARG Biochem IC50.
Sequence of Human Full Length PARG (Q86W56 whole entry): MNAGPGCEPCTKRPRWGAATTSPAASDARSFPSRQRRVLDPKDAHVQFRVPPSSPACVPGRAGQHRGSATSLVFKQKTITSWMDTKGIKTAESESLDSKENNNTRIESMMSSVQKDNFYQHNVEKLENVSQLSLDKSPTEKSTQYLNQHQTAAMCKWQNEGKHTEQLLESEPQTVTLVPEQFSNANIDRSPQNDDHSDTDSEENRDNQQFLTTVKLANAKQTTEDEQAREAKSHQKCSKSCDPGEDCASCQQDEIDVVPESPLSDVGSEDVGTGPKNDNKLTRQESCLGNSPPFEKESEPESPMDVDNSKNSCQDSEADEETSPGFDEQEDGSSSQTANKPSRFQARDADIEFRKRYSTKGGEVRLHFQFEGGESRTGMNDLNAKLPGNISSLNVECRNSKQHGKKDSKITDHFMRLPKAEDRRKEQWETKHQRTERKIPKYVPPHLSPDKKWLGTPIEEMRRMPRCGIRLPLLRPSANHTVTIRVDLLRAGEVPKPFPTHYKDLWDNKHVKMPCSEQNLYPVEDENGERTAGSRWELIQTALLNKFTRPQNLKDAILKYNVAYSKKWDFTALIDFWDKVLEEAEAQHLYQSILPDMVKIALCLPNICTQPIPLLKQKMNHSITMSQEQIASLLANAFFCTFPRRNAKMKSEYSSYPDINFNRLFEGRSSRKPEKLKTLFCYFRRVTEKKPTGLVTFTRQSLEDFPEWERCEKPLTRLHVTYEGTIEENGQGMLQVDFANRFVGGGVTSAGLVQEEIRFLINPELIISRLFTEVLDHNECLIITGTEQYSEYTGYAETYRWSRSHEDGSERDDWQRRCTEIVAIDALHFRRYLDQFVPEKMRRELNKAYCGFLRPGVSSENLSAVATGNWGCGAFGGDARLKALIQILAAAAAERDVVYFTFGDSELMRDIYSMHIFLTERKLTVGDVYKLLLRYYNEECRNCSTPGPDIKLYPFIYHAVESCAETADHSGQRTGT
With `COCCn1c(=O)n(Cc2cc(C)no2)c(=O)c2cc(S(=O)(=O)NC3(CF)CC3)ccc21` [Example 527, N-[1-(Fluoromethyl)cyclopropyl]-1-(2-methoxyethyl)-3-[(3-methylisoxazol-5-yl)methyl]-2,4-dioxo-quinazoline-6-sulfonamide], the IC50 was found to be 208 nM.
In the case of `Cn1nnnc1Cn1c(=O)c2cc(S(=O)(=O)NC3(C)CC3)ccc2n(C)c1=O` [Example 508, 1-Methyl-N-(1-methylcyclopropyl)-3-[(1-methyltetrazol-5-yl)methyl]-2,4-dioxo-quinazoline-6-sulfonamide], the IC50 was 2770 nM.
Regarding `Cn1c(=O)n(CC(=O)c2ccncc2)c(=O)c2cc(S(=O)(=O)NC3(C)CC3)ccc21` [Example 528, 1-Methyl-N-(1-methylcyclopropyl)-2,4-dioxo-3-[2-oxo-2-(4-pyridyl)ethyl]quinazoline-6-sulfonamide], the IC50 came out at 1740 nM.
On the same count and under the same terms, under `Cn1cnnc1Cn1c(=O)c2cc(S(=O)(=O)NC3(C)CC3)ccc2n(C)c1=O` [Example 499, 1-Methyl-N-(1-methylcyclopropyl)-3-[(4-methyl-1,2,4-triazol-3-yl)methyl]-2,4-dioxo-quinazoline-6-sulfonamide] stands 2460 nM.

Still in this assay, the particulars now being: read-out: PARG Biochem IC50 Geomean.
Take `Cc1cc(Cn2nc(C3CCCC3)c3ccc(S(=O)(=O)NC4(C)CC4)cc3c2=O)on1` [Example 309]: the IC50 came to 2520 nM.
The same measure, in the same setting: under `Cn1c(=O)c2cc(S(=O)(=O)NC3(C)CC3)ccc2n(Cc2c(Cl)cccc2Cl)c1=O` [Example 74] stands 2100 nM; under `Cn1c(=O)c2cc(S(=O)(=O)NC3(C)CC3)ccc2n(CCC2CC2)c1=O` [Example 43], 1170 nM; under `Cc1cc(Cn2nc(N(C)C)c3ccc(S(=O)(=O)NC4(C)CC4)cc3c2=O)on1` [Example 282], 638 nM.
For `Cn1c(=O)n(Cc2nc3ccccc3[nH]2)c(=O)c2cc(S(=O)(=O)NC3(C)CC3)ccc21` [Example 112], the IC50 stood at 5710 nM.
Turning to `Cc1nc(-c2ccccc2)c(Cn2c(=O)n(C)c(=O)c3cc(S(=O)(=O)NC4(C)CC4)ccc32)s1` [Example 134], the IC50 is 760 nM.
The same measure, in the same setting: the result for `Cc1noc(C)c1Cn1c(=O)n(C)c(=O)c2cc(S(=O)(=O)NC3(C)CC3)ccc21` [Example 121] reads 2540 nM; that for `Cc1cc(Cn2nc(C(=O)N(C)C)c3ccc(S(=O)(=O)NC4(C)CC4)cc3c2=O)on1` [Example 326], 8630 nM; that for `Cn1c(=O)c2cc(S(=O)(=O)NC3(C)CC3)ccc2n(Cc2c(F)cccc2F)c1=O` [Eample 75], 714 nM.
Still for that read-out and setting: the result for `CCOC(=O)C(F)n1c(=O)n(Cc2cc(C)no2)c(=O)c2cc(S(=O)(=O)NC3(C)CC3)ccc21` (stereo not drawn) [Example 335] reads 1050 nM; that for `Cn1c(=O)c2cc(S(=O)(=O)NC3(C)CC3)ccc2n(CC(=O)c2ccc(O)cc2)c1=O` [Example 107], 8940 nM; that for `Cn1c(=O)n(Cc2ccncc2)c(=O)c2cc(S(=O)(=O)NC3(C)CC3)ccc21` [Example 53], 7980 nM.
In the case of `Cn1cc(Cn2c(=O)c3cc(S(=O)(=O)NC4(C)CC4)ccc3n(CCN3CCCC3=O)c2=O)cn1` [Example 334], the IC50 stood at 4220 nM.
In the case of `Cc1nc2ccc(S(=O)(=O)NC3(C)CC3)cc2c(=O)[nH]1` [Example 52], the half-inhibitory concentration (IC50) was found to be 6960 nM.
The same measure, in the same setting: under `Cc1cc(Cn2c(=O)n(C)c(=O)c3cc(S(=O)(=O)NC4(C)CC4)ccc32)no1` [Example 105] stands 1430 nM.
Same read-out and setting: the result for `Cn1ccnc1Cn1c(=O)c2cc(S(=O)(=O)NC3(C)CC3)ccc2n(C)c1=O` [Example 113] reads 7350 nM; that for `CN1CCCC(Cn2c(=O)n(Cc3cnn(C)c3)c(=O)c3cc(S(=O)(=O)NC4(C)CC4)ccc32)C1` (stereo not drawn) [Example 236], 6740 nM; that for `CNc1nn(C)c(=O)c2cc(S(=O)(=O)NC3(C)CC3)ccc12` [Example 234, 3-Methyl-1-(methylamino)-N-(1-methylcyclopropyl)-4-oxo-phthalazine-6-sulfonamide], 1980 nM.
On to `Cn1c(=O)c2cc(S(=O)(=O)NC3(C)CC3)ccc2n(CC(=O)Nc2ccccc2)c1=O` [Example 92], for which the IC50 amounted to 4130 nM.
On the same count and under the same terms, the result for `Cc1cc(Cn2c(=O)c3cc(S(=O)(=O)NC4(C)CC4)ccc3n(C)c2=O)no1` [Example 103] reads 5190 nM; that for `Cn1c(=O)c2cc(S(=O)(=O)NC3(C)CC3)ccc2n(Cc2ccc(C#N)c(F)c2)c1=O` [Example 100], 1280 nM.
Same read-out and setting: the result for `Cn1cncc1Cn1c(=O)c2cc(S(=O)(=O)NC3(C)CC3)ccc2n(C)c1=O` [Example 154] reads 3310 nM; that for `Cn1c(=O)c2cc(S(=O)(=O)NC3(C)CC3)ccc2n(Cc2ccccn2)c1=O` [Example 82], 5770 nM; that for `Cc1csc(Cn2c(=O)c3cc(S(=O)(=O)NC4(C)CC4)ccc3n(C)c2=O)n1` [Example 150], 4780 nM.
Still for that read-out and setting: the result for `COc1nn(Cc2cc(C)no2)c(=O)c2cc(S(=O)(=O)NC3(C)CC3)ccc12` [Example 312, 1-Methoxy-N-(1-methylcyclopropyl)-3-[(3-methylisoxazol-5-yl)methyl]-4-oxo-phthalazine-6-sulfonamide] reads 1230 nM; that for `Cn1c(=O)n(CC(=O)N2CCC[C@H]2C(N)=O)c(=O)c2cc(S(=O)(=O)NC3(C)CC3)ccc21` [Example 86], 5470 nM.
Regarding `Cn1c(=O)c2cc(S(=O)(=O)NC3(C)CC3)ccc2n(Cc2cscn2)c1=O` [Example 148], the IC50 came to 855 nM.
Regarding `CC#CCn1c(=O)n(C)c(=O)c2cc(S(=O)(=O)NC3(C)CC3)ccc21` [Example 136], the IC50 was found to be 1110 nM.
Same read-out and setting: the result for `Cc1cc(Cn2c(=O)c3cc(S(=O)(=O)NC4(C)CC4)ccc3n(C)c2=O)n(C)n1` [Example 123] reads 2420 nM; that for `CCN(CC)c1ccc(C(=O)Cn2c(=O)c3cc(S(=O)(=O)NC4(C)CC4)ccc3n(C)c2=O)cc1` [Example 110], 6700 nM.
In the case of `Cc1cc(Cn2c(=O)c3cc(S(=O)(=O)NC4(C)CC4)ccc3n(CCN3CCCC3)c2=O)on1` [Example 248], the IC50 stood at 521 nM.
The same measure, in the same setting: under `Cn1c(=O)n(Cc2cnn(CC(N)=O)c2)c(=O)c2cc(S(=O)(=O)NC3(C)CC3)ccc21` [Example 203] stands 635 nM.
For `Cn1nc(Cl)c2ccc(S(=O)(=O)NC3(C)CC3)cc2c1=O` [Example 227, 1-Chloro-3-methyl-N-(1-methylcyclopropyl)-4-oxo-phthalazine-6-sulfonamide], the IC50 worked out at 5140 nM.
Regarding `COc1ccccc1Cn1c(=O)n(C)c(=O)c2cc(S(=O)(=O)NC3(C)CC3)ccc21` [Example 59], the concentration for half-maximal inhibition (IC50) was 3240 nM.
For `Cc1ccccc1Cn1c(=O)n(C)c(=O)c2cc(S(=O)(=O)NC3(C)CC3)ccc21` [Example 56], the IC50 was determined as 3340 nM.
For the molecule `Cc1cc(Cn2nc(C#CCN(C)C)c3ccc(S(=O)(=O)NC4(C)CC4)cc3c2=O)on1` [Example 283, 1-[3-(dimethylamino)prop-1-ynyl]-N-(1-methylcyclopropyl)-3-[(3-methylisoxazol-5-yl)methyl]-4-oxo-phthalazine-6-sulfonamide], the IC50 was determined as 512 nM.
Same read-out and setting: under `Cc1nnsc1Cn1c(=O)c2cc(S(=O)(=O)NC3(C)CC3)ccc2n(C)c1=O` [Example 191] stands 877 nM.
On to `Cn1c(=O)[nH]c2cc(F)c(S(=O)(=O)NC3(C)CC3)cc2c1=O` [Example 211, 7-Fluoro-3-methyl-N-(1-methylcyclopropyl)-2,4-dioxo-1H-quinazoline-6-sulfonamide], for which the IC50 came out at 1560 nM.
`Cn1c(=O)c2cc(S(=O)(=O)NC3(C)CC3)ccc2n(CC2CCOC2)c1=O` (stereo not drawn) [Example 37]: the IC50 is 1480 nM.
Take `Cc1cc(Cn2nc(Cl)c3ccc(S(=O)(=O)NC4(C)CC4)cc3c2=O)on1` [Example 262, 1-Chloro-N-(1-methylcyclopropyl)-3-[(3-methylisoxazol-5-yl)methyl]-4-oxo-phthalazine-6-sulfonamide]: the IC50 was determined as 1110 nM.
Still for that read-out and setting: the result for `Cc1cc(C)cc(Cn2c(=O)n(C)c(=O)c3cc(S(=O)(=O)NC4(C)CC4)ccc32)c1` [Example 77] reads 1680 nM.
Take `Cc1nc2ccc(S(=O)(=O)NC3(C)CC3)cc2c(=O)n1C` [Example 51]: the IC50 turned out to be 4160 nM.
The same measure, in the same setting: under `Cc1cc(Cn2nc(C(=O)NCC3CCN(C)CC3)c3ccc(S(=O)(=O)NC4(C)CC4)cc3c2=O)on1` [Example 333] stands 781 nM; under `Cc1cc(Cn2c(=O)c3cc(S(=O)(=O)NC4(C)CC4)ccc3n(CCN3CCN(C)CC3)c2=O)on1` [Example 341], 511 nM.
As to `Cc1cc(Cn2cc(CCCN(C)C)c3ccc(S(=O)(=O)NC4(C)CC4)cc3c2=O)on1` [Example 287, 4-[3-(dimethylamino)propyl]-N-(1-methylcyclopropyl)-2-[(3-methylisoxazol-5-yl)methyl]-1-oxo-isoquinoline-7-sulfonamide], the IC50 turned out to be 1070 nM.
The same measure, in the same setting: under `Cc1cc(Cn2ncc3ccc(S(=O)(=O)NC4(C)CC4)cc3c2=O)on1` [Example 299, N-(1-Methylcyclopropyl)-3-[(3-methylisoxazol-5-yl)methyl]-4-oxo-phthalazine-6-sulfonamide] stands 1270 nM; under `Cn1c(-c2ccccc2)nc2ccc(S(=O)(=O)NC3(C)CC3)cc2c1=O` [Example 97], 2190 nM.
For `CC(C)Cc1nc2ccc(S(=O)(=O)NC3(C)CC3)cc2c(=O)n1C` [Example 81], the IC50 was 1840 nM.
Same read-out and setting: under `CC1(NS(=O)(=O)c2ccc3c(c2)[nH]c(=O)c(=O)n3Cc2ccc(F)cc2)CC1` [Example 128, 1-[(4-Fluorophenyl)methyl]-N-(1-methylcyclopropyl)-2,3-dioxo-4H-quinoxaline-6-sulfonamide] stands 5100 nM; under `Cc1cc(Cn2c(=O)n(C3CC3)c(=O)c3cc(S(=O)(=O)NC4(C)CC4)ccc32)n(C)n1` [Example 241], 642 nM.
Still for that read-out and setting: under `Cc1nc(C)c(Cn2c(=O)c3cc(S(=O)(=O)NC4(C)CC4)ccc3n(C)c2=O)s1` [Example 142] stands 907 nM; under `C#CCn1cc(Cn2c(=O)c3cc(S(=O)(=O)NC4(C)CC4)ccc3n(C)c2=O)cn1` [Example 216], 560 nM; under `Cn1c(=O)n(Cc2cnc(Cl)s2)c(=O)c2cc(S(=O)(=O)NC3(C)CC3)ccc21` [Example 144], 1600 nM.

The IC50 is the point on the concentration scale where inhibition reaches its midpoint.
